Measured values reported in US20240025884A1 (Dong-A ST Co., Ltd., priority 2022, published 2024).

Target: GCN2 (Homo sapiens (Human), UniProt Q9P2K8)
Assay: GCN2 Biochemical Assay (TR-FRET, GFP-eIF2S1 substrate phosphorylation)
Conditions: read-out: IC50 (GCN2 Inhibitory Activity)
Outline: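 TR-FRET readout (Ex 340, Em 490/520 nm) after 2–3 h with Tb-labelled phospho-eIF2S1 antibody in stop mix, following a 70 min room-temperature kinase step. Reaction: in-house GCN2, GFP-eIF2S1, ATP, tRNA in Tris pH 7.5 (2× stocks 1.6 nM, 50 nM, 0.2 mM); compounds tested at 10 concentrations, with a phospho-substrate artifact counter-plate.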

Chain of GCN2 (Q9P2K8 whole entry): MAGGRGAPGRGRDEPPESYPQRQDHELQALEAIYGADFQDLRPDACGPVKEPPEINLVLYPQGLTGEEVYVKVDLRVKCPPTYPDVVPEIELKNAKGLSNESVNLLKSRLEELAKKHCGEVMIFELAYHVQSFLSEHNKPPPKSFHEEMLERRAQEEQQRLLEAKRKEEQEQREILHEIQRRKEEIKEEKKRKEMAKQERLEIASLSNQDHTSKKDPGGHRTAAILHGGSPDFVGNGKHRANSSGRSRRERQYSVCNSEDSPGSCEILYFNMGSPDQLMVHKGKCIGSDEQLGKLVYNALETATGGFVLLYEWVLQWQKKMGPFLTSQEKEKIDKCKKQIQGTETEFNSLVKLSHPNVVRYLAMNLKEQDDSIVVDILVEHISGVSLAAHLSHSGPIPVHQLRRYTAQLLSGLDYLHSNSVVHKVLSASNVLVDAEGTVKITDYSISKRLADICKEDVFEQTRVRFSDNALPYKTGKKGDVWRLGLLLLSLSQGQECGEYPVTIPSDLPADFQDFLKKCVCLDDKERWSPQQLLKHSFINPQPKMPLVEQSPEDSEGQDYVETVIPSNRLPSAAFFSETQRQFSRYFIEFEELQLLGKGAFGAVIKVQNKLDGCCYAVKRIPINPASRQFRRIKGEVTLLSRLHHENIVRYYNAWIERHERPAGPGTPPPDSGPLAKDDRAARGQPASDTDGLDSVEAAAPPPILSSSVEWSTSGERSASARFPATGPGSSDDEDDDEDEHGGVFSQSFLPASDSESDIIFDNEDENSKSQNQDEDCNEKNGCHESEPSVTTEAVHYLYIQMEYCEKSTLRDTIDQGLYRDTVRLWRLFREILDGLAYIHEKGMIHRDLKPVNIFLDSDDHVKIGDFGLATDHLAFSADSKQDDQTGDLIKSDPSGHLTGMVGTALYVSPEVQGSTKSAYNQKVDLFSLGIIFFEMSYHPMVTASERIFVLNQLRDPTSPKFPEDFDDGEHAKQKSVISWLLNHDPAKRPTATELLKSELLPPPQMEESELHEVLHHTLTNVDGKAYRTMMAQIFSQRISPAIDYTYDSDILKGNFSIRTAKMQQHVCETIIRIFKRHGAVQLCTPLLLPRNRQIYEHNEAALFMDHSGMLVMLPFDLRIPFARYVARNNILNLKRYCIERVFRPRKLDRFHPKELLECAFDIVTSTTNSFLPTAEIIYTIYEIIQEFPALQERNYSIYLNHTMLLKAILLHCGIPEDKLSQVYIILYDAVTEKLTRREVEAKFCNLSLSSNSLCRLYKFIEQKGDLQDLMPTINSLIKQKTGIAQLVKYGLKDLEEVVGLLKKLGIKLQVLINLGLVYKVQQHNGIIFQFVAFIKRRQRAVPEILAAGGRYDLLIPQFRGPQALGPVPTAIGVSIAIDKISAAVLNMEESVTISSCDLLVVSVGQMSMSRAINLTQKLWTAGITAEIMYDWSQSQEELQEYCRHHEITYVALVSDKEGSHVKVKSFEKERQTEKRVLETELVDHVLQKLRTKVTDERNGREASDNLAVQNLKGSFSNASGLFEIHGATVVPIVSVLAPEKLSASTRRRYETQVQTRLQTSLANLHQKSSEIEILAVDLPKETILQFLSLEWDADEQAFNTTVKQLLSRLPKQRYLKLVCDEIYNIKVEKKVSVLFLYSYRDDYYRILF

IC50 [nM]	SMILES
10 to 100	CCCCCc1cnc(O[C@H]2CCN(CC(=O)Nc3cccc4c(-c5nc(Nc6cc(C)n(C)n6)ncc5C)c[nH]c34)C2)nc1 [Example 102, (S)-N-(3-(2-((1,5-dimethyl-1H-pyrazol-3-yl)amino)-5-methylpyrimidin-4-yl)-1H-indol-7-yl)-2-(3-((5-pentylpyrimidin-2-yl)oxy)pyrrolidin-1-yl)acetamide]
10 to 100	Cc1cnc(Nc2cc(C)n(C)n2)nc1-c1c[nH]c2c(NC(=O)CN3CC[C@H](Oc4ccc(CN5CCN(C)CC5)cc4)C3)cccc12 [Example 103, (S)-N-(3-(2-((1,5-dimethyl-1H-pyrazol-3-yl)amino)-5-methylpyrimidin-4-yl)-1H-indol-7-yl)-2-(3-(4-((4-methylpiperazin-1-yl)methyl)phenoxy)pyrrolidin-1-yl)acetamide]
< 10	Cc1cnc(Nc2cc(C)n(C)n2)nc1-c1c[nH]c2c(NC(=O)CN3CC[C@H](Oc4ccnn4C)C3)cccc12 [Example 104, (S)-N-(3-(2-((1,5-dimethyl-1H-pyrazol-3-yl)amino)-5-methylpyrimidin-4-yl)-1H-indol-7-yl)-2-(3-((1-methyl-1H-pyrazol-5-yl)oxy)pyrrolidin-1-yl)acetamide]
< 10	Cc1cnc(Nc2cc(C)n(C)n2)nc1-c1c[nH]c2c(NC(=O)CN3CC[C@H](Oc4ccn(C)n4)C3)cccc12 [Example 105, (S)-N-(3-(2-((1,5-dimethyl-1H-pyrazol-3-yl)amino)-5-methylpyrimidin-4-yl)-1H-indol-7-yl)-2-(3-((1-methyl-1H-pyrazol-3-yl)oxy)pyrrolidin-1-yl)acetamide]
100 to 1000	COC(=O)c1sc2ccccc2c1O[C@H]1CCN(CC(=O)Nc2cccc3c(-c4nc(Nc5cc(C)n(C)n5)ncc4C)c[nH]c23)C1 [Example 106, methyl (S)-3-((1-(2-((3-(2-((1,5-dimethyl-1H-pyrazol-3-yl)amino)-5-methylpyrimidin-4-yl)-1H-indol-7-yl)amino)-2-oxoethyl)pyrrolidin-3-yl)oxy)benzo[b]thiophene-2-carboxylate]
< 10	COC(=O)c1sccc1O[C@H]1CCN(CC(=O)Nc2cccc3c(-c4nc(Nc5cc(C)n(C)n5)ncc4C)c[nH]c23)C1 [Example 107, methyl (S)-3-((1-(2-((3-(2-((1,5-dimethyl-1H-pyrazol-3-yl)amino)-5-methylpyrimidin-4-yl)-1H-indol-7-yl)amino)-2-oxoethyl)pyrrolidin-3-yl)oxy)thiophene-2-carboxylate]
< 10	Cc1cnc(Nc2cc(C)n(C)n2)nc1-c1c[nH]c2c(NC(=O)CN3CC[C@H](Oc4ccsc4C(=O)O)C3)cccc12 [Example 108, (S)-3-((1-(2-((3-(2-((1,5-dimethyl-1H-pyrazol-3-yl)amino)-5-methylpyrimidin-4-yl)-1H-indol-7-yl)amino)-2-oxoethyl)pyrrolidin-3-yl)oxy)thiophene-2-carboxylic acid]
< 10	Cc1cnc(Nc2cc(C)n(C)n2)nc1-c1c[nH]c2c(NC(=O)CN3CC[C@H](Oc4ccsc4C(N)=O)C3)cccc12 [Example 109, (S)-3-((1-(2-((3-(2-((1,5-dimethyl-1H-pyrazol-3-yl)amino)-5-methylpyrimidin-4-yl)-1H-indol-7-yl)amino)-2-oxoethyl)pyrrolidin-3-yl)oxy)thiophene-2-carboxamide]
< 10	CNC(=O)c1sccc1O[C@H]1CCN(CC(=O)Nc2cccc3c(-c4nc(Nc5cc(C)n(C)n5)ncc4C)c[nH]c23)C1 [Example 110, (S)-3-((1-(2-((3-(2-((1,5-dimethyl-1H-pyrazol-3-yl)amino)-5-methylpyrimidin-4-yl)-1H-indol-7-yl)amino)-2-oxoethyl)pyrrolidin-3-yl)oxy)-N-methylthiophene-2-carboxamide]
< 10	Cc1cnc(Nc2cc(C)n(C)n2)nc1-c1c[nH]c2c(NC(=O)CN3CC[C@H](Oc4ccsc4C(=O)NC4CC4)C3)cccc12 [Example 111, (S)-N-cyclopropyl-3-((1-(2-((3-(2-((1,5-dimethyl-1H-pyrazol-3-yl)amino)-5-methylpyrimidin-4-yl)-1H-indol-7-yl)amino)-2-oxoethyl)pyrrolidin-3-yl)oxy)thiophene-2-carboxamide]
10 to 100	Cc1cc(O[C@H]2CCN(CC(=O)Nc3cccc4c(-c5nc(Nc6cc(C)n(C)n6)ncc5C)c[nH]c34)C2)no1 [Example 112, (S)-N-(3-(2-((1,5-dimethyl-1H-pyrazol-3-yl)amino)-5-methylpyrimidin-4-yl)-1H-indol-7-yl)-2-(3-((5-methylisoxazol-3-yl)oxy)pyrrolidin-1-yl)acetamide]
10 to 100	Cc1cnc(Nc2cc(C)n(C)n2)nc1-c1c[nH]c2c(NC(=O)CN3CC[C@H](Oc4noc5ccccc45)C3)cccc12 [Example 113, (S)-2-(3-(benzo[d]isoxazol-3-yloxy)pyrrolidin-1-yl)-N-(3-(2-((1,5-dimethyl-1H-pyrazol-3-yl)amino)-5-methylpyrimidin-4-yl)-1H-indol-7-yl)acetamide]
10 to 100	Cc1cnc(Nc2cc(C)n(C)n2)nc1-c1c[nH]c2c(NC(=O)CN3CC[C@H](Oc4ccsn4)C3)cccc12 [Example 114, (S)-N-(3-(2-((1,5-dimethyl-1H-pyrazol-3-yl)amino)-5-methylpyrimidin-4-yl)-1H-indol-7-yl)-2-(3-(isothiazol-3-yloxy)pyrrolidin-1-yl)acetamide]
10 to 100	Cc1cnc(Nc2cc(C)n(C)n2)nc1-c1c[nH]c2c(NC(=O)CN3CC[C@H](Oc4ccsc4C)C3)cccc12 [Example 115, (S)-N-(3-(2-((1,5-dimethyl-1H-pyrazol-3-yl)amino)-5-methylpyrimidin-4-yl)-1H-indol-7-yl)-2-(3-((2-methylthiophen-3-yl)oxy)pyrrolidin-1-yl)acetamide]
10 to 100	Cc1cnc(Nc2cc(C)n(C)n2)nc1-c1c[nH]c2c(NC(=O)CN3CC[C@H](Oc4cc[nH]n4)C3)cccc12 [Example 116, (S)-2-(3-((1H-pyrazol-3-yl)oxy)pyrrolidin-1-yl)-N-(3-(2-((1,5-dimethyl-1H-pyrazol-3-yl)amino)-5-methylpyrimidin-4-yl)-1H-indol-7-yl)acetamide]
< 10	Cc1cnc(Nc2cc(C)n(C)n2)nc1-c1c[nH]c2c(NC(=O)CN3CC[C@H](Oc4ccon4)C3)cccc12 [Example 118, (S)-N-(3-(2-((1,5-dimethyl-1H-pyrazol-3-yl)amino)-5-methylpyrimidin-4-yl)-1H-indol-7-yl)-2-(3-(isoxazol-3-yloxy)pyrrolidin-1-yl)acetamide]
10 to 100	Cc1cnc(Nc2cc(C)n(C)n2)nc1-c1c[nH]c2c(NC(=O)CN3CC[C@H](Oc4cc(N)[nH]n4)C3)cccc12 [Example 119, (S)-2-(3-((5-amino-1H-pyrazol-3-yl)oxy)pyrrolidin-1-yl)-N-(3-(2-((1,5-dimethyl-1H-pyrazol-3-yl)amino)-5-methylpyrimidin-4-yl)-1H-indol-7-yl)acetamide]
< 10	COC(=O)c1[nH]ccc1O[C@H]1CCN(CC(=O)Nc2cccc3c(-c4nc(Nc5cc(C)n(C)n5)ncc4C)c[nH]c23)C1 [Example 120, methyl (S)-3-((1-(2-((3-(2-((1,5-dimethyl-1H-pyrazol-3-yl)amino)-5-methylpyrimidin-4-yl)-1H-indol-7-yl)amino)-2-oxoethyl)pyrrolidin-3-yl)oxy)-1H-pyrrole-2-carboxylate]
< 10	CCOC(=O)c1cnoc1O[C@H]1CCN(CC(=O)Nc2cccc3c(-c4nc(Nc5cc(C)n(C)n5)ncc4C)c[nH]c23)C1 [Example 121, ethyl (S)-5-((1-(2-((3-(2-((1,5-dimethyl-1H-pyrazol-3-yl)amino)-5-methylpyrimidin-4-yl)-1H-indol-7-yl)amino)-2-oxoethyl)pyrrolidin-3-yl)oxy)isoxazole-4-carboxylate]
10 to 100	CNC(=O)c1cc(O[C@H]2CCN(CC(=O)Nc3cccc4c(-c5nc(Nc6cc(C)n(C)n6)ncc5C)c[nH]c34)C2)no1 [Example 123, (S)-3-((1-(2-((3-(2-((1,5-dimethyl-1H-pyrazol-3-yl)amino)-5-methylpyrimidin-4-yl)-1H-indol-7-yl)amino)-2-oxoethyl)pyrrolidin-3-yl)oxy)-N-methylisoxazole-5-carboxamide]
< 10	Cc1cnc(Nc2cc(C)n(C)n2)nc1-c1c[nH]c2c(NC(=O)CN3CC[C@H](Oc4cc(C(=O)NC5CC5)on4)C3)cccc12 [Example 124, (S)-N-cyclopropyl-3-((1-(2-((3-(2-((1,5-dimethyl-1H-pyrazol-3-yl)amino)-5-methylpyrimidin-4-yl)-1H-indol-7-yl)amino)-2-oxoethyl)pyrrolidin-3-yl)oxy)isoxazole-5-carboxamide]
10 to 100	Cc1cnc(Nc2cc(C)n(C)n2)nc1-c1c[nH]c2c(NC(=O)CN3CC[C@H](Oc4cc(C(=O)N(C)C)on4)C3)cccc12 [Example 125, (S)-3-((1-(2-((3-(2-((1,5-dimethyl-1H-pyrazol-3-yl)amino)-5-methylpyrimidin-4-yl)-1H-indol-7-yl)amino)-2-oxoethyl)pyrrolidin-3-yl)oxy)-N,N-dimethylisoxazole-5-carboxamide]
10 to 100	Cc1cnc(Nc2cc(C)n(C)n2)nc1-c1c[nH]c2c(NC(=O)CN3CC[C@H](Oc4ncc(C(=O)NC5CC5)o4)C3)cccc12 [Example 126, (S)-N-cyclopropyl-2-((1-(2-((3-(2-((1,5-dimethyl-1H-pyrazol-3-yl)amino)-5-methylpyrimidin-4-yl)-1H-indol-7-yl)amino)-2-oxoethyl)pyrrolidin-3-yl)oxy)oxazole-5-carboxamide]

SMILES	IC50 [nM]
Cc1cnc(Nc2cc(C)n(C)n2)nc1-c1c[nH]c2c(NC(=O)CN3CC[C@H](Oc4cc(C(N)=O)on4)C3)cccc12 [Example 122, (S)-3-((1-(2-((3-(2-((1,5-dimethyl-1H-pyrazol-3-yl)amino)-5-methylpyrimidin-4-yl)-1H-indol-7-yl)amino)-2-oxoethyl)pyrrolidin-3-yl)oxy)isoxazole-5-carboxamide]	10 to 100
